Measured values reported in US10092566B2, “Composition for controlling a gut immunity and use thereof” (SEOUL NATIONAL UNIVERSITY R&DB FOUNDATION, priority 2013, dated 2018).

System: DUOX
Test: In vivo ROS detection in gut epithelia (HOCl-specific R19S staining, ratio of ROS-positive guts)
Set-up: species or system Drosophila
Description: R19S, a recently developed HOCl-specific rhodamine-based dye, was used in this experiment (Chen et al., Chem Commun (Camb) 47, pp. 4373-4375, 2011). R19S was purchased from Futurechem (Seoul, South Korea). […]
Furthermore, to measure the basal level of ROS in germ-free animals, Drosophila monoassociated with each bacterium (C. intestini, A. pomorum, L. plantarum, G. morbifer, G. morbifer-carA::Tn5, L. brevis, or L. brevisΔcarA) were experimented with as disclosed above. A 5% sucrose solution containing 10 μM of R19S was orally administered to the monoassociated Drosophila (13 days old) for 90 minutes.
Following the R19S ingestion, the midguts were dissected and fixed with 4% formaldehyde. The level of HOCl (ROS level) was visualized by LSM700 confocal microscopy (Carl Zeiss).
For all of the experiments, R19S-positive guts in each animal group (n=approx. 20) were measured by each independent experiment, and data was indicated by at least three repeated and independent experiments. The number of R19S-positive guts in regard to the total numbers of gut samples was indicated as the ratio of ROS-positive guts.

| SMILES | ROS-inducing ability / DUOX activation (nucleobases and pyrimidine analogs, 20 nM each, ingestion for 15 minutes) | DUOX-dependent ROS after coingestion of uracil with N-acetylcysteine (uracil 20 nM, 1.5 hours, plus N-acetylcysteine) |
| --- | --- | --- |
| O=c1[nH]cc(F)c(=O)[nH]1 [5-fluorouracil, reference compound] | only uracil is capable of activating DUOX | – |
| CC(=O)N[C@@H](CS)C(=O)O [N-acetylcysteine, reference compound] | – | could not be detected |
